Measured values reported in PubChem BioAssay AID2060361 (Molecular Pharmacology Branch, DTP, NCI, 2025).

System: 463943-066-T-J2-PDC tumor spheroids with HUVEC/MSC, viability
Assay: Anticancer human tumor 463943-066-T-J2-PDC patient-derived colon adenocarcinoma cell line growth inhibition [TAK]
Details: for IC50: curve of first compound; for viability, T/C: stronger effect = lower value; active = viability on the fitted dose curve at most 10% of control; inactive = the rest
Summary of the method: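 Tumor cells were grown as spheroids with HUVEC and hMSC (60:25:15) and treated with targeted agents combined with TAK-243 or ipatasertib. Drugs were tested in half-log steps down from near the clinical Cmax, or from 10 microM where Cmax was unknown.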

[1] = second compound 0.3 µM, first compound 0.0316 µM
[2] = second compound 0.3 µM, first compound 0.1 µM
[3] = second compound 0.3 µM, first compound 0.316 µM
[4] = second compound 0.3 µM, first compound 1 µM
[5] = second compound 0.949 µM, first compound 0.0316 µM
[6] = second compound 0.949 µM, first compound 0.1 µM
[7] = second compound 0.949 µM, first compound 0.316 µM
[8] = second compound 0.949 µM, first compound 1 µM
[9] = second compound 3 µM, first compound 0.0316 µM
[10] = second compound 3 µM, first compound 0.1 µM
[11] = second compound 3 µM, first compound 0.316 µM
[12] = second compound 3 µM, first compound 1 µM
[13] = second compound 9.49 µM, first compound 0.0316 µM
[14] = second compound 9.49 µM, first compound 0.1 µM
[15] = second compound 9.49 µM, first compound 0.316 µM
[16] = second compound 9.49 µM, first compound 1 µM
[17] = second compound 30 µM, first compound 0.0316 µM
[18] = second compound 30 µM, first compound 0.1 µM
[19] = second compound 30 µM, first compound 0.316 µM
[20] = second compound 30 µM, first compound 1 µM
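Also: spheroids exposed to drugs for seven days.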
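For viability, T/C in this document: 100% = DMSO vehicle control wells.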

CC(=O)Nc1cccc(-n2c(=O)n(C3CC3)c(=O)c3c(Nc4ccc(I)cc4F)n(C)c(=O)c(C)c32)c1 + CC(C)NCC(C(=O)N1CCN(c2ncnc3c2C(C)CC3O)CC1)c1ccc(Cl)cc1
inactive: viability, T/C (second compound 0.3 µM, first compound 94.9 pM) 98.7% | viability, T/C (second compound 0.3 µM, first compound 0.0003 µM) 94.3% | viability, T/C (second compound 0.3 µM, first compound 0.000949 µM) 83.2% | viability, T/C (second compound 0.3 µM, first compound 0.003 µM) 82.2% | viability, T/C (second compound 0.3 µM, first compound 0.00949 µM) 71.5% | viability, T/C (second compound 0.3 µM, first compound 0.03 µM) 65.2% | viability, T/C (second compound 0.949 µM, first compound 94.9 pM) 95.2% | viability, T/C (second compound 0.949 µM, first compound 0.0003 µM) 91.5% | viability, T/C (second compound 0.949 µM, first compound 0.000949 µM) 84.1% | viability, T/C (second compound 0.949 µM, first compound 0.003 µM) 83.9% | viability, T/C (second compound 0.949 µM, first compound 0.00949 µM) 77.2% | viability, T/C (second compound 0.949 µM, first compound 0.03 µM) 61.2% | viability, T/C (second compound 3 µM, first compound 94.9 pM) 96.1% | viability, T/C (second compound 3 µM, first compound 0.0003 µM) 96.3% | viability, T/C (second compound 3 µM, first compound 0.000949 µM) 87.2% | viability, T/C (second compound 3 µM, first compound 0.003 µM) 84.4% | viability, T/C (second compound 3 µM, first compound 0.00949 µM) 72% | viability, T/C (second compound 3 µM, first compound 0.03 µM) 57% | viability, T/C (second compound 9.49 µM, first compound 94.9 pM) 88% | viability, T/C (second compound 9.49 µM, first compound 0.0003 µM) 99% | viability, T/C (second compound 9.49 µM, first compound 0.000949 µM) 90.3% | viability, T/C (second compound 9.49 µM, first compound 0.003 µM) 79.5% | viability, T/C (second compound 9.49 µM, first compound 0.00949 µM) 72.3% | viability, T/C (second compound 9.49 µM, first compound 0.03 µM) 62.7% | viability, T/C (second compound 30 µM, first compound 94.9 pM) 91.4% | viability, T/C (second compound 30 µM, first compound 0.0003 µM) 90.3% | viability, T/C (second compound 30 µM, first compound 0.000949 µM) 87.1% | viability, T/C (second compound 30 µM, first compound 0.003 µM) 80.6% | viability, T/C (second compound 30 µM, first compound 0.00949 µM) 69.1% | viability, T/C (second compound 30 µM, first compound 0.03 µM) 53.6%
> 30 nM: IC50 (second compound 0.3 µM) | IC50 (second compound 0.949 µM) | IC50 (second compound 3 µM) | IC50 (second compound 9.49 µM) | IC50 (second compound 30 µM)

Cc1nc(NC(=O)N2CCCC2C(N)=O)sc1-c1ccnc(C(C)(C)C(F)(F)F)c1 (stereo not given) + CC(C)NCC(C(=O)N1CCN(c2ncnc3c2C(C)CC3O)CC1)c1ccc(Cl)cc1
> 10000 nM: IC50 (second compound 0.3 µM) | IC50 (second compound 0.949 µM) | IC50 (second compound 3 µM) | IC50 (second compound 9.49 µM) | IC50 (second compound 30 µM)
inactive: viability, T/C [1] 106% | viability, T/C [2] 99.8% | viability, T/C [3] 105% | viability, T/C [4] 87.8% | viability, T/C (second compound 0.3 µM, first compound 3.16 µM) 81% | viability, T/C (second compound 0.3 µM, first compound 10 µM) 79.3% | viability, T/C [5] 104% | viability, T/C [6] 89.9% | viability, T/C [7] 91.8% | viability, T/C [8] 89.2% | viability, T/C (second compound 0.949 µM, first compound 3.16 µM) 78.4% | viability, T/C (second compound 0.949 µM, first compound 10 µM) 78.1% | viability, T/C [9] 98% | viability, T/C [10] 100% | viability, T/C [11] 88.4% | viability, T/C [12] 88.8% | viability, T/C (second compound 3 µM, first compound 3.16 µM) 81.1% | viability, T/C (second compound 3 µM, first compound 10 µM) 75% | viability, T/C [13] 89.6% | viability, T/C [14] 95.3% | viability, T/C [15] 90.7% | viability, T/C [16] 86.9% | viability, T/C (second compound 9.49 µM, first compound 3.16 µM) 79.5% | viability, T/C (second compound 9.49 µM, first compound 10 µM) 80.7% | viability, T/C [17] 92.7% | viability, T/C [18] 94.4% | viability, T/C [19] 88.2% | viability, T/C [20] 92.8% | viability, T/C (second compound 30 µM, first compound 3.16 µM) 90.5% | viability, T/C (second compound 30 µM, first compound 10 µM) 76.6%

COc1c(OCCCN2CCOCC2)ccc2c3n(c(=NC(=O)c4cnc(N)nc4)nc12)CCN3 + CC(C)NCC(C(=O)N1CCN(c2ncnc3c2C(C)CC3O)CC1)c1ccc(Cl)cc1
inactive: viability, T/C (second compound 0.3 µM, first compound 0.00316 µM) 91.4% | viability, T/C (second compound 0.3 µM, first compound 0.01 µM) 91.3% | viability, T/C [1] 85% | viability, T/C [2] 77.1% | viability, T/C [3] 70.3% | viability, T/C [4] 66.5% | viability, T/C (second compound 0.949 µM, first compound 0.00316 µM) 88.6% | viability, T/C (second compound 0.949 µM, first compound 0.01 µM) 93.1% | viability, T/C [5] 75.1% | viability, T/C [6] 78.2% | viability, T/C [7] 77.2% | viability, T/C [8] 68.1% | viability, T/C (second compound 3 µM, first compound 0.00316 µM) 93.7% | viability, T/C (second compound 3 µM, first compound 0.01 µM) 86.8% | viability, T/C [9] 83.5% | viability, T/C [10] 79.8% | viability, T/C [11] 79.8% | viability, T/C [12] 77% | viability, T/C (second compound 9.49 µM, first compound 0.00316 µM) 81.3% | viability, T/C (second compound 9.49 µM, first compound 0.01 µM) 85.5% | viability, T/C [13] 86.4% | viability, T/C [14] 73.6% | viability, T/C [15] 75.6% | viability, T/C [16] 71.2% | viability, T/C (second compound 30 µM, first compound 0.00316 µM) 85.6% | viability, T/C (second compound 30 µM, first compound 0.01 µM) 87.5% | viability, T/C [17] 74.6% | viability, T/C [18] 73.9% | viability, T/C [19] 66.5% | viability, T/C [20] 71.2%
> 1000 nM: IC50 (second compound 0.3 µM) | IC50 (second compound 0.949 µM) | IC50 (second compound 3 µM) | IC50 (second compound 9.49 µM) | IC50 (second compound 30 µM)
